From patent publication US9708308B2, “Factor IXa inhibitors” (Merck Sharp & Dohme Corp., priority 2012, dated 2017) come the findings set out here.

pIC50: −log10 of the molar value.

Factor IXa, sequence (P00740 227-461 limits assumed): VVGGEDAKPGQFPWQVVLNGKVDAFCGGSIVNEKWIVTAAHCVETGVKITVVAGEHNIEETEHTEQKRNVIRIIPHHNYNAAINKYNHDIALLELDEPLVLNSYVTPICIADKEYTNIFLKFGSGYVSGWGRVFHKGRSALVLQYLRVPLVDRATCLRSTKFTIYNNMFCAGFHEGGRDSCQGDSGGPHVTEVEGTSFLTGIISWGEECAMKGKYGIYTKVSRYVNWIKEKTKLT
Factor IXa, sequence (P00740 47-191 partner limits assumed): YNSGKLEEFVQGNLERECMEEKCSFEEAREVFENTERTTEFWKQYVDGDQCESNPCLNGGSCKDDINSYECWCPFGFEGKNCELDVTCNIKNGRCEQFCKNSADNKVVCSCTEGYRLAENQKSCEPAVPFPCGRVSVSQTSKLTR

This assay has as its target Factor IXa (Homo sapiens, UniProt P00740). The assay is described as follows: Determination of inhibitory activity against Factor IXa (cleavage of fluorescent peptide substrate). The class given is biochemical. The conditions noted are these: cleavage of fluorescent peptide CH3SO2-D-CHG-Gly-Arg-AFC, release of AFC; read-out: FIXa IC50. The gist of the method: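 Factor IXa activity followed via cleavage of CH3SO2-D-CHG-Gly-Arg-AFC, releasing AFC. Fluorescence read at excitation 405 nm, emission 510 nm.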
Consider `COc1cc(-n2ccc(N3C[C@@H](C)O[C@H]([C@@H](O)C(=O)Nc4ccc5c(N)noc5c4)C3=O)n2)cnn1` [Example 159, (R)—N-(3-aminobenzo[d]isoxazol-6-yl)-2-hydroxy-2-((2R,6R)-4-(1-(6-methoxypyridazin-4-yl)-1H-pyrazol-3-yl)-6-methyl-3-oxomorpholin-2-yl)acetamide], for which the pIC50 was 8.65. For the compound `C[C@H]1CN(c2ccn(-c3ccnnc3)n2)C(=O)[C@@H]([C@@H](O)C(=O)Nc2ccc3c(N)noc3c2)O1` [Example 160, (R)—N-(3-aminobenzo[d]isoxazol-6-yl)-2-hydroxy-2-((2R,6S)-6-methyl-3-oxo-4-(1-(pyridazin-4-yl)-1H-pyrazol-3-yl)morpholin-2-yl)acetamide], the pIC50 is 8.64. With `C[C@H]1CN(c2nn(-c3ccnnc3)cc2F)C(=O)[C@@H]([C@@H](O)C(=O)Nc2ccc3c(N)noc3c2)O1` [Example 161, (R)—N-(3-aminobenzo[d]isoxazol-6-yl)-2-((2R,6S)-4-(4-fluoro-1-(pyridazin-4-yl)-1H-pyrazol-3-yl)-6-methyl-3-oxomorpholin-2-yl)-2-hydroxyacetamide], the pIC50 was 7.49.

Consider `COc1cc(-n2ccc(N3C[C@H](C)O[C@H]([C@@H](O)C(=O)Nc4ccc5c(N)noc5c4)C3=O)n2)cnn1` [Example 162, (R)—N-(3-aminobenzo[d]isoxazol-6-yl)-2-hydroxy-2-((2R,6S)-4-(1-(6-methoxypyridazin-4-yl)-1H-pyrazol-3-yl)-6-methyl-3-oxomorpholin-2-yl)acetamide], for which the pIC50 was 8.58.

Regarding `C[C@H]1CN(c2ccn(-c3ccncc3)n2)C(=O)[C@@H]([C@@H](O)C(=O)Nc2ccc3c(N)noc3c2)O1` [Example 163, (R)—N-(3-aminobenzo[d]isoxazol-6-yl)-2-hydroxy-2-((2R,6S)-6-methyl-3-oxo-4-(1-(pyridin-4-yl)-1H-pyrazol-3-yl)morpholin-2-yl)acetamide], the pIC50 is 7.95. Take `C[C@H]1CN(c2ccn(-c3ccnc(C#N)c3)n2)C(=O)[C@@H]([C@@H](O)C(=O)Nc2ccc3c(N)noc3c2)O1` [Example 164, (R)—N-(3-aminobenzo[d]isoxazol-6-yl)-2-((2R,6S)-4-(1-(2-cyanopyridin-4-yl)-1H-pyrazol-3-yl)-6-methyl-3-oxomorpholin-2-yl)-2-hydroxyacetamide]: the pIC50 is 8.25. For `C[C@@H]1CN(c2ccn(-c3ccnc(C#N)c3)n2)C(=O)[C@@H]([C@@H](O)C(=O)Nc2ccc3c(N)noc3c2)O1` [Example 165, (R)—N-(3-aminobenzo[d]isoxazol-6-yl)-2-((2R,6R)-4-(1-(2-cyanopyridin-4-yl)-1H-pyrazol-3-yl)-6-methyl-3-oxomorpholin-2-yl)-2-hydroxyacetamide], the pIC50 is 8.70. Turning to `C[C@@H]1CN(c2ccn(-c3ccncc3)n2)C(=O)[C@@H]([C@@H](O)C(=O)Nc2ccc3c(N)noc3c2)O1` [Example 166, (R)—N-(3-aminobenzo[d]isoxazol-6-yl)-2-hydroxy-2-((2R,6R)-6-methyl-3-oxo-4-(1-(pyridin-4-yl)-1H-pyrazol-3-yl)morpholin-2-yl)acetamide], the pIC50 was 8.47.

For `COc1cc(-n2ccc(N3C[C@H](C)O[C@H]([C@@H](O)C(=O)Nc4ccc5c(N)noc5c4)C3=O)n2)ccn1` [Example 167, (R)—N-(3-aminobenzo[d]isoxazol-6-yl)-2-hydroxy-2-((2R,6S)-4-(1-(2-methoxypyridin-4-yl)-1H-pyrazol-3-yl)-6-methyl-3-oxomorpholin-2-yl)acetamide], the pIC50 was 7.75. As to `COc1cc(-n2ccc(N3C[C@@H](C)O[C@H]([C@@H](O)C(=O)Nc4ccc5c(N)noc5c4)C3=O)n2)ccn1` [Example 168, (R)—N-(3-aminobenzo[d]isoxazol-6-yl)-2-hydroxy-2-((2R,6R)-4-(1-(2-methoxypyridin-4-yl)-1H-pyrazol-3-yl)-6-methyl-3-oxomorpholin-2-yl)acetamide], the pIC50 was 8.23.

The pIC50 is the negative decadic logarithm of the IC50, by convention in mol/L.
